The source of these data is patent publication US20240166662A1, “THIOPHENE BASED COMPOUNDS AND USE THEREOF AS BCKDK INHIBITORS” (Ramino-Bio Ltd., priority 2021, published 2024).

pIC50: −log10 of the molar value. Read-outs that look alike come from different tables or passages of the source.

For data set [1], the system named is BDK (MBP-BDK). Kind of data set: Cell-free BDK activity assay (ADP-Glo kinase kit). The data set is classed as biochemical. To be noted: in-vitro. An excerpt:
(§1) Cell-free BDK activity assay was developed based on protocols and published work of David Chuang as described in Tso et al. 2014. Briefly, The main components of the enzymatic cell-free activity assay are the kinase-BDK (MBP-BDK), its 14 kDa synthetic substrate Lip-LBD-PhP, and ATP. The detection is being done with Promega ADP-Glo™ kinase kit. The assay is robust generating an assay window (AW)>5 and Z′−factor>0.5. The concentrations of all assay components were reduced relative to published concentrations and the assay was validated using known BDK inhibitors.
(§2) Constructs: a synthetic 14 KDa peptide that serves as a substrate for BDK instead of the multimeric BCKDH. This peptide, named LBD-PhP, is composed of the lipoyl binding domain (LBD) of the BCKDH E2 subunit connected by a linker to the phosphorylation peptide (PhP) of the E1α subunit. LBD-PhP is lipoylated in vitro using the E. Coli enzyme—lipoylate ligase (Lp1A) to achieve enhancement of BDK substrate phosphorylation. Additionally, a chimeric BDK in which the kinase is fused in its N-terminus to MBP, generating-MBP-BDK to increase BDK solubility and stability.
(§3) Reaction: The ADP detection is composed of the following steps:
(§4) Kinase reaction is performed by adding BDK, lip-LBD-PhP and ATP and incubating for 60 min at room temperature. This is done in solid white 384-well plates and the total volume of the reaction is 10 μl.
(§5) ADP-Glo reagent is added to terminate the kinase reaction and to deplete the remaining ATP and incubated for 40 min.
(§6) Kinase detection reagent is added for ADP detection: The ADP is converted to ATP and using a series of enzymatic reactions the newly synthesized ATP generates a luminescent signal which is proportional to the amount of the initial ADP formed by the kinase reaction. Luminescence is measured using a plate reader (Tecan Spark 20M plate reader).
(§7) In a typical experiment the AW and Z-factor are calculated from 12 repeats of positive control (100% activity) and 12 repeats of negative control (0% activity).
(§8) Positive control (100% activity)=maximal kinase activity with ATP and substrate. Negative control (0% activity)=minimal kinase activity with ATP alone (no substrate). AW: Average100%/Average0%. Z-factor: 1−((3*STDEV100%+3*STDEV0%)/(Average100%−Average0%)).
(§9) Each 384-well plate-based screening experiment includes serial dilutions of 14 different compounds and the following controls: 1. A known BDK tool compound BT2 (for allosteric inhibitors)/Radicicol (for ATP-pocket inhibitors) 2. Twelve repeats of positive and negative controls. Analyzed compounds and tool compounds are serially diluted, 8-point half log from 50 μM to 16 nM in triplicates. The positive and negative controls are used to calculate AW and Z-factor and to enable data normalization.
(In general: ADP-Glo first removes unused ATP, then detects ADP through luciferase.)

The test system of the next data set is BCKDH. The following applies: WT and iMSUD patient derived lymphoblasts; cited from earlier work.
The nature of data set [2]: Pharmacokinetic parameters in-vivo (IV, IP, PO). The following applies: for AUC: read-out: Exposure (AUC); for bioavailability: read-out: Oral bioavailability (F); for Vd: read-out: Volume of distribution (Vd). The source says: (§10) Various pharmacokinetic parameters of exemplary compounds of the invention have been established in-vivo and are presented in Table 2 below.

Data set [3] addresses T1, BDK (Homo sapiens, UniProt O14874).
T1 construct: endogenous in cells; host or cells: human lymphoblasts
Description: BDK inhibitory activity in cell culture (human lymphoblasts). The data set is classed as cell-based.

The target of data set [4] is T2, BDK (MBP-BDK) (UniProt Q00972).
T2 construct: IC50 BDK; other: cell-free BDK activity assay; other: in-vitro; assay not specified
Kind of data set: Cell-free BDK activity assay (ADP-Glo kinase kit). The data set is classed as biochemical. The following applies: cell-free BDK activity assay.
Description: as §1, §2, §3, §4, §5, §6, §7, §8, §9

In data set [5] the target is T1, BDK. Kind of data set: Cell-based ELISA of BDK activity (E1α phosphorylation level) in WT and iMSUD patient derived lymphoblasts. The following applies: WT and mutant lymphoblasts derived from iMSUD patients. An excerpt:
Accordingly, the inventors performed cell studies in order to test the efficacy of the exemplary compounds of the invention on the BCKDH E1α subunit phosphorylation level, as it is BDK substrate in WT and iMSUD lymphoblasts and fibroblasts. Efficacy of the tested compounds RMO-1154 and RMO-800 in 2 MSUD lymphoblasts lines has been determined using cell-based ELISA to quantify BDK activity in treated cells as monitored by the phosphorylation level of BDK substrate, E1α. Healthy donor cells and BT2 (commercially available BDK inhibitor) have been used as positive controls.

The nature of data set [6]: Plasma protein binding (human). Type of data set: in vitro ADME.
Description: as §10

Data set [7] is described as follows: Plasma protein binding (mouse). The data set is classed as in vitro ADME.
Description: as §10

Data set [8] concerns BCKA (KIV, KIC, KMV) plasma concentration. Kind of data set: In-vivo BCKA plasma concentration in WT mice by LC-MS. The following applies: for reduction of BCKA (such as KIC and/or KMV) plasma concentrations: 3 single doses a day for 7 days, day 8, WT mice. The source says: An alternative assay for assessment of BCKDH activity comprises measuring of BCKAs blood (e.g. plasma) concentration within the subject. BCKAs (such as a-keto isovalerate (abbreviated as KIV), sodium a-keto isocaproate (abbreviated as KIC), sodium a-keto β-methylvalerate (abbreviated as KMV)) are downstream metabolites of BCAAs, and the substrates of BCKDH complex, and are considered to be reliable and sensitive biomarkers for BDK inhibition and BCKDH complex activity enhancement.
BCKA blood concentration of a subject can be determined by various analytical methods, such as by LC-MS.
The inventors performed an in-vivo study by administering an exemplary compound of the invention (RMO-1154) to 8-10 week-old […] WT mice (n=5). RMO-1154 has been administered (per os, 3 single doses a day every 8 hrs, for 7 days) at various single doses (10 mg/kg, 30 mg/kg, and 100 mg/kg). At day 8, KIV, KIC and KMV plasma concentration has been determined by LC-MS.

[9] abbreviates: human lymphoblasts, read-out: IC50 lymphoblasts.

On to `O=C(O)c1cc2cscc2s1`, for which the “BDK inhibitory activity in-vitro (in words)” value in the data set with BDK (MBP-BDK) [1] is “significant BDK inhibitory activity”.

With `O=C(O)c1sc2cc(F)ccc2c1Cl` [BT2F], the “BCKDH activity (in words)” value with BCKDH is “increase of the BCKDH activity”.

Turning to `O=C(O)c1sc2cc(Cl)ccc2c1Cl` [BT2], in the data set on BCKDH, the “BCKDH activity (in words)” value is recorded as “increase of the BCKDH activity”.

Regarding `CC(=O)Nc1nonc1NC(=O)c1sc2cc(Cl)ccc2c1Cl` [BT3], the “BCKDH activity (in words)” value in the data set on BCKDH is recorded as “increase of the BCKDH activity”.

As to `O=C(O)c1cc2c(F)c(F)sc2s1` [RMO-800, 4,5-difluorothieno[2,3-b]thiophene-2-carboxylic acid], the AUC in data set [2] (ip, 3 mg/kg) was 14700 ng·h/mL; in data set [2] (iv, 1 mg/kg), 3580 ng·h/mL; in [2] (po, 3 mg/kg), 12700 ng·h/mL. In addition, the bioavailability in data set [2] (ip, 3 mg/kg) amounted to 136%; in data set [2] (po, 3 mg/kg) it was 118%. Also, the Vd in data set [2] (iv, 1 mg/kg) came to 0.16 L/kg. The pIC50 at BDK [3] (setting [9]) and at BDK (MBP-BDK) [4] was 7.00 throughout. The “BDK inhibitory activity (FIGS. 1A-1B, in words)” value at BDK [5] is reported as “BDK inhibitory activity”. Further, the figures for the fraction unbound in data set [6] and in data set [7] were 0.008 and 0.012, respectively.

For `O=C(O)c1sc2sc(F)cc2c1F` [RMO-801, 2,4-difluorothieno[2,3-b]thiophene-5-carboxylic acid], the pIC50 at BDK [3] (setting [9]) was 6.77; on BDK (MBP-BDK) [4], 6.33.

In the case of `O=C(O)c1cc2c(F)sc(F)c2s1` [RMO-1149, 4,6-difluorothieno[3,4-b]thiophene-2-carboxylic acid], the negative logarithm of the IC50 (pIC50) on BDK [3] (setting [9]) is 6.42; on BDK (MBP-BDK) [4] it was 6.10.

In the case of `O=C(O)c1[se]c2cc(Cl)ccc2c1Cl` [RMO-1152, 3,6-dichlorobenzo[b]selenophene-2-carboxylic acid], the negative logarithm of the IC50 (pIC50) against BDK [3] (lymphoblasts cells, unit inferred) was 4.87 to 5.54.

As to `O=C(O)c1sc2sccc2c1F` [RMO-1153, 4-fluorothieno[2,3-b]thiophene-5-carboxylic acid], the negative logarithm of the IC50 (pIC50) on BDK [3] (setting [9]) was 6.54; against BDK (MBP-BDK) [4] it was 6.31.

Regarding `O=C(O)c1cc2cc(F)sc2s1` [RMO-1153B, 5-fluorothieno[2,3-b]thiophene-2-carboxylic acid], the pIC50 against BDK (MBP-BDK) [4] was 6.21.

As to `O=C(O)c1sc2cscc2c1F` [RMO-1154, 3-fluorothieno[3,4-b]thiophene-2-carboxylic acid], the figures for the “reduction of BCKA (such as KIC and/or KMV) plasma concentrations” value in data set [8] (10 mg/kg per os), in data set [8] (30 mg/kg per os) and in data set [8] (100 mg/kg per os) were “about 2 fold”, 8-10 fold and 10-12 fold, respectively. Further, the “in-vivo reduction of BCKA (KIV, KIC, KMV) concentration in plasma (FIG. 2, in words)” value in data set [8] (WT mice, day 8) is on record as “dose dependent in-vivo reduction”. The AUC is 18000 ng·h/mL in [2] (ip, 3 mg/kg); 6130 ng·h/mL in [2] (iv, 1 mg/kg); 19400 ng·h/mL in data set [2] (po, 3 mg/kg). Also, the bioavailability in data set [2] (ip, 3 mg/kg) came to 98%; in data set [2] (po, 3 mg/kg), 104%. For the same compound, the Vd in data set [2] (iv, 1 mg/kg) was 0.15 L/kg. Further, the results for the pIC50 at BDK [3] (setting [9]) and at BDK (MBP-BDK) [4] were 6.24 and 6.25, respectively. In addition, the “BDK inhibitory activity (FIGS. 1A-1B, in words)” value at BDK [5] is “BDK inhibitory activity”. The free fraction (fraction unbound) in [6] is 0.015; in [7] it was 0.108.

Broadly, the AUC is concentration integrated over time. As usually defined, the pIC50 is the IC50 on a negative log10 scale, so that one unit is a factor of ten. As usually defined, the fraction unbound is the share of the substance not bound to proteins or other matrix. Low values mean extensive binding, high ones weak binding.
